Assay results as given in US4221805A, “Method of inducing platelet antiaggregation activity” (priority 1978, dated 1980).
Entries after “also recorded” stand apart in the source; their conditions may differ.

Experiments:
[1] = Acute toxicity in mice, endoperitoneal administration (LD50); assay type: in vivo; details: mouse, in vivo, ip
Method: (§1) A total of 240 albino mice, 120 male and 120 female, of the Swiss strain and having an average weight of about 20 grams were used. The animals were divided into groups of 10 animals each, and kept caged for some days in an environment at a constant temperature (21°±1° C.) and humidity (60±5%). They were then fasted for 24 hours before the experiment, but were given free access to water.
(§2) The substance indicated by MRAP2 was administered, in a single administration, either orally or endoperitoneally. The LD50 was evaluated for each of the administration methods, using the method of Litchfield and Wilcoxon, J.Pharmacology, 96, 99, […], based on the mortality recorded for each group of mice over the seven days following administration.
(§3) Six groups of 20 animals, 10 male and 10 female, which had been given the active principle dissolved in a physiological solution were used.

[2] = test system: mice; assay: as above; assay type: in vivo; details: 20 animals per dose
Method: as §1, §2, §3

[3] = Acute toxicity in rats, oral administration (LD50); assay type: in vivo; details: rat, in vivo
Method: (§4) 200 albino rats, 100 male and 100 female, of the Wistar strain and weighing 130-150 grams were divided into groups of 10 animals each.
(§5) After being caged for some days at constant temperature (21°±1° C.) and humidity (60±5%), the animals were fasted for 24 hours before treatment.
(§6) The MRAP2 was administered in a single administration either orally or endoperitoneally, following the method heretofore described.
(§7) Teh LD50 was evaluated for each method of administration using the Litchfield and Wilcoxon method, based on the percentage mortality recorded in each group of rats during the seven days following treatment.
(§8) Five groups of 20 animals, 10 male and 10 female were used.

[4] = test system: rats; assay: Acute toxicity in rats, oral administration (LD50); assay type: in vivo; details: 20 animals per dose
Method: as §4, §5, §6, §7, §8

[5] = Acute toxicity in rats, endoperitoneal administration (LD50); assay type: in vivo; details: rat, in vivo, ip
Method: as §4, §5, §6, §7, §8

[6] = test system: rats; assay: as above; assay type: in vivo; details: 20 animals per dose
Method: as §4, §5, §6, §7, §8

[7] = test system: human PRP (Platelet Rich Plasma), platelet aggregation induced by ADP; assay: In vitro platelet antiaggregation activity (Born method, ADP-induced); assay type: cell-based
Method: The method described by Born (Nature, 194, 927, 1962) was followed for this test, based on the increase in the platelet aggregation induced by ADP. The experiment was conducted using a human PRP (Platelet Rich Plasma) pool from four healthy volunteers who had not taken any drugs for ten days. The PRP was adjusted to 280,000±20,000 and kept at ambient temperature for the entire duration of the test.
400 μl of PRP and 100 μl of MRAP2 dissolved in a physiological solution and adjusted to a pH of 7.4 were placed in plastic test tubes. Three doses of the drug in question (0.181, 0.904 and 1.818 mg/ml) were used.
Three dilutions of aspirin were prepared under the same conditions for use as a comparison drug. Two minutes after contact between the drug and PRP, the test tube was inserted into the aggregometer cell (EEI, Model 169 with Corning Recorder Mod.840). After 60 seconds, ADP (10^-3 mM) was added and the aggregation was recorded. In calculating the antiaggregation activity, reference was made to the maximum amplitude of the aggregation curved obtained with ADP. Assuming this amplitude to be 100, the amplitudes of the curves obtained with the various doses of MRAP2 and aspirin were calculated as a percentage.

[8] = test system: stomach (gastric lesion); assay: Ulcerogenic activity in rats after a single administration; assay type: in vivo, male albino rats, Wistar strain; details: rats; for Average degree of lesion + E.E.: scale 0-7, controls 0.65 ± 0.1
Method: The ulcerogenic activity of MRAP2 was tested both after a single administration of the drug, and after prolonged administration.
In these tests, a total of 70 male albino rats of Wistar strain were used, having a weight of 200±20 grams.
The MRAP2 was administered diluted in tap water.
40 rats, fasted for 18 hours before the experiment, were divided into four batches of ten animals and treated orally as follows:
3rd group: MRAP2 (50 mg/kg)
4th group: MRAP2 (125 mg/kg).
The animals were killed after six hours. The stomach was withdrawn and the gastric lesion index was evaluated in terms of an arbitrary scale of values lying between 0. and 7 based on previous models proposed by other authors.
Furthermore, the treatment was randomised in order to eliminate any possible polarisation of the data.
The points given for gastric ulcerative lesions were as follows:
(1) hyperaemia or slight capillary obstruction; or slight loss of the epithelium; or some petechiae even with pale mucosa without hyperaemia;
(2) diffuse capillary obstructions or numerous petechiae; or diffuse loss of the epithelium; of a few surface lesions;
(3) strong submucosa haemorrhage; or many petechiae and small surface lesions; or much anaemic mucosa (yellowish colour); or up to three small ulcers;
(4) general pattern as in the previous numbers, plus up to ten small ulcers; or long erosions; or up to three medium sized ulcers;
(5) pattern as in number 4, with up to 15 small ulcers; or up to 6 large ulcers;
(6) pattern as previously, with up to ten large ulcers, plus small ulcers;
(7) pattern as previously, plus up to ten large ulcers and small ulcers; cases of perforated ulcers.

Compound `Cl.Clc1ccccc1CN1CCCC1` [MRAP2, N-(2-chlorobenzyl)-pyrrolidine hydrochloride] has a mortality at 168 h ([1]; 75 mg/kg) of 0%, a mortality at 168 h ([1]; 100 mg/kg) of 10% and a mortality at 168 h ([1]; 150 mg/kg) of 90%. The mortality at 168 h ([1]; 200 mg/kg) was 100%, the mortality at 168 h ([1]; 300 mg/kg) was 100% and the mortality at 168 h ([1]; 400 mg/kg) was 100%. The LD50 at 168 h ([1]; single administration, 7 days, 95% limits 105-130) was 116 mg/kg, the “No. of animals dead” value ([2]; 75 mg/kg) was 0 and the “No. of animals dead” value ([2]; 100 mg/kg) was 2. For the same compound, the “No. of animals dead” value ([2]; 150 mg/kg) was 18, the “No. of animals dead” value ([2]; 200 mg/kg) was 20 and the “No. of animals dead” value ([2]; 300 mg/kg) was 20. The “No. of animals dead” value ([2]; 400 mg/kg) was 20, the mortality at 168 h ([3]; 400 mg/kg) was 0% and the mortality at 168 h ([3]; 500 mg/kg) was 20%. It also gave a mortality at 168 h ([3]; 600 mg/kg) of 40%, a mortality at 168 h ([3]; 800 mg/kg) of 75% and a mortality at 168 h ([3]; 1000 mg/kg) of 100%. For the same compound, the LD50 at 168 h ([3]; single administration, 7 days, 95% limits 631-714) was 675 mg/kg, the “No. of animals dead” value ([4]; 400 mg/kg) was 0 and the “No. of animals dead” value ([4]; 500 mg/kg) was 4. The “No. of animals dead” value ([4]; 600 mg/kg) was 8, the “No. of animals dead” value ([4]; 800 mg/kg) was 15 and the “No. of animals dead” value ([4]; 1000 mg/kg) was 20. The mortality at 168 h ([5]; 50 mg/kg) was 0%, the mortality at 168 h ([5]; 100 mg/kg) was 5% and the mortality at 168 h ([5]; 200 mg/kg) was 55%. For the same compound, the mortality at 168 h ([5]; 300 mg/kg) was 85%, the mortality at 168 h ([5]; 400 mg/kg) was 100% and the LD50 at 168 h ([5]; single administration, 7 days, 95% limits 174-203) was 188 mg/kg. For the same compound, the “No. of animals dead” value ([6]; 50 mg/kg) was 0, the “No. of animals dead” value ([6]; 100 mg/kg) was 1 and the “No. of animals dead” value ([6]; 200 mg/kg) was 11. For the same compound, the “No. of animals dead” value ([6]; 300 mg/kg) was 17, the “No. of animals dead” value ([6]; 400 mg/kg) was 20 and the inhibition of platelet aggregation at 181 µg/mL ([7]; Platelet, ADP 10^-3 mM, drug 0.181 mg/ml) was 26%. It also gave an activity at 181 µg/mL ([7]; Platelet, ADP 10^-3 mM, drug 0.181 mg/ml, serum + ADP = 100) of 74%, an inhibition of platelet aggregation at 904 µg/mL ([7]; Platelet, ADP 10^-3 mM, drug 0.904 mg/ml) of 91% and an activity at 904 µg/mL ([7]; Platelet, ADP 10^-3 mM, drug 0.904 mg/ml, serum + ADP = 100) of 9%. The inhibition of platelet aggregation at 1818 µg/mL ([7]; Platelet, ADP 10^-3 mM, drug 1.818 mg/ml) was 92%, the activity at 1818 µg/mL ([7]; Platelet, ADP 10^-3 mM, drug 1.818 mg/ml, serum + ADP = 100) was 8% and the “platelet antiaggregation activity (in words)” value ([7]; in vitro, ADP, manifested by the dose of 0.904 mg/ml, comparison with aspirin, hydrochloride) was “considerable platelet antiaggregation activity; also recorded: clearly superior to that possessed by aspirin”. For the same compound, the “Average degree of lesion + E.E.” value ([8]; single oral 50 mg/kg) was 0.80 ± 0.1, the “Average degree of lesion + E.E.” value ([8]; single oral 125 mg/kg, P <0.05 with regard to controls) was 1.15 ± 0.2 and the “incidence of ulcerative lesions (in words)” value ([8]; single oral administration, relative to control animals) was “almost identical or slightly greater than that of the control animals”.
